Assay results published in patent publication US20150105252A1, “SUBSTITUTED PYRAZOLES AS HERBICIDES” (E I DU PONT DE NEMOURS AND COMPANY, priority 2013, published 2015).

Legend:
[1] = test system: ryegrass, Italian; experiment: Test D postemergence; format: in vivo, Lolium multiflorum; details: scale 0 to 100
Outline: (§1)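 Visual 0-100 rating (100 = complete control) against untreated plants, made 14 to 21 days after treatment in a controlled environment. Compounds, formulated with surfactant in non-phytotoxic solvent, were applied either to seeds just sown in silt loam or to 1- to 4-leaf plants (2 to 18 cm) grown in peat-based medium.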

[2] = test system: yellow nutsedge; experiment: Test F preemergence; format: in vivo, Cyperus esculentus
Outline: (§2)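 Formulated in surfactant-containing non-phytotoxic solvent; pre: applied to seeded silt loam; post: applied to plants 2–18 cm (1–4 leaves); greenhouse 14–21 d; visual 0–100 rating vs controls.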

[3] = test system: arrowleaf sida; experiment: Test F preemergence; format: in vivo, Sida rhombifolia
Outline: as §2

[4] = test system: velvetleaf; experiment: Test F preemergence; format: in vivo, Abutilon theophrasti
Outline: as §2

[5] = test system: pigweed, palmer; experiment: Test F preemergence; format: in vivo, Amaranthus palmeri
Outline: as §2

[6] = test system: windgrass; experiment: Test D preemergence; format: in vivo, Apera spica-venti; details: scale 0 to 100
Outline: as §1

[7] = test system: buckwheat, wild; experiment: Test D postemergence; format: in vivo, Polygonum convolvulus; details: scale 0 to 100
Outline: as §1

[8] = test system: canarygrass; experiment: Test D postemergence; format: in vivo, Phalaris minor; details: scale 0 to 100
Outline: as §1

[9] = test system: dayflower, VA; experiment: Test F preemergence; format: in vivo, Commelina virginica
Outline: as §2

[10] = test system: galium; experiment: Test D postemergence; format: in vivo, Galium aparine; details: scale 0 to 100
Outline: as §1

[11] = test system: common waterhemp; experiment: Test F preemergence; format: in vivo, Amaranthus rudis
Outline: as §2

[12] = test system: lambsquarters; experiment: Test D postemergence; format: in vivo, Chenopodium album; details: scale 0 to 100
Outline: as §1

[13] = test system: chickweed; experiment: Test D preemergence; format: in vivo, Stellaria media; details: scale 0 to 100
Outline: as §1

[14] = test system: radish, wild; experiment: Test D preemergence; format: in vivo, Raphanus raphanistrum; details: scale 0 to 100
Outline: as §1

[15] = Preemergence, 62 g ai/ha, scale 0 to 100
[16] = Preemergence, 125 g ai/ha, scale 0 to 100
[17] = preemergence, 8 g ai/ha, scale 0 to 100, 100 is complete control
[18] = Preemergence, 16 g ai/ha, scale 0 to 100

CCOc1cc(C(=O)NC(C)C)nn1Cc1ccnc(C(F)(F)F)c1 [Compound 188]
Ryegrass, Italian plant response rating ([1]; Postemergence, 31 g ai/ha): 20
Ryegrass, Italian plant response rating ([1]; Postemergence, 125 g ai/ha): 25
Ryegrass, Italian plant response rating ([1]; Postemergence, 250 g ai/ha): 65
Ryegrass, Italian plant response rating ([1]; postemergence, 62 g ai/ha): 20
Plant response rating, Yellow Nutsedge [2, 15]: 15
Plant response rating, Yellow Nutsedge [2, 16]: 70
Plant response rating, Yellow Nutsedge [2, 17]: 0
Plant response rating, Arrowleaf Sida [3, 18]: 0
Plant response rating, Arrowleaf Sida [3, 15]: 10
Plant response rating, Arrowleaf Sida [3, 16]: 20
Plant response rating, Arrowleaf Sida [3, 17]: 0
Plant response rating, Velvetleaf [4, 15]: 100
Plant response rating, Velvetleaf [4, 16]: 100
Plant response rating, Velvetleaf [4, 17]: 0
Plant response rating, Velvetleaf ([4]; preemergence, scale 0 to 100, 100 is complete control): 20
Plant response rating, Pigweed, Palmer [5, 16]: 50
Plant response rating, Pigweed, Palmer [5, 17]: 0
Plant response rating, Windgrass ([6]; 62 g ai/ha): 100
Plant response rating, Windgrass ([6]; 125 g ai/ha): 100
Plant response rating, Windgrass ([6]; 250 g ai/ha): 100
Buckwheat, Wild plant response rating ([7]; Postemergence, 31 g ai/ha): 60
Buckwheat, Wild plant response rating ([7]; Postemergence, 125 g ai/ha): 70
Buckwheat, Wild plant response rating ([7]; Postemergence, 250 g ai/ha): 70
Buckwheat, Wild plant response rating ([7]; postemergence, 62 g ai/ha): 60
Canarygrass plant response rating ([8]; Postemergence, 31 g ai/ha): 15
Canarygrass plant response rating ([8]; Postemergence, 125 g ai/ha): 20
Canarygrass plant response rating ([8]; Postemergence, 250 g ai/ha): 35
Canarygrass plant response rating ([8]; postemergence, 62 g ai/ha): 15
Plant response rating, Dayflower, VA [9, 15]: 90
Plant response rating, Dayflower, VA [9, 16]: 100
Plant response rating, Dayflower, VA [9, 17]: 0
Galium plant response rating ([10]; Postemergence, 31 g ai/ha): 75
Galium plant response rating ([10]; Postemergence, 125 g ai/ha): 85
Galium plant response rating ([10]; Postemergence, 250 g ai/ha): 90
Galium plant response rating ([10]; postemergence, 62 g ai/ha): 75
Plant response rating, Common Waterhemp [11, 18]: 100
Plant response rating, Common Waterhemp [11, 15]: 100
Plant response rating, Common Waterhemp [11, 16]: 100
Plant response rating, Common Waterhemp [11, 17]: 85
Lambsquarters plant response rating ([12]; Postemergence, 31 g ai/ha): 70
Lambsquarters plant response rating ([12]; Postemergence, 125 g ai/ha): 80
Lambsquarters plant response rating ([12]; Postemergence, 250 g ai/ha): 90
Lambsquarters plant response rating ([12]; postemergence, 62 g ai/ha): 70
Plant response rating, Chickweed ([13]; 31 g ai/ha): 100
Plant response rating, Chickweed ([13]; 62 g ai/ha): 100
Plant response rating, Chickweed ([13]; 125 g ai/ha): 100
Plant response rating, Chickweed ([13]; 250 g ai/ha): 100
Plant response rating, Radish, Wild ([14]; 62 g ai/ha): 100
Plant response rating, Radish, Wild ([14]; 125 g ai/ha): 100
Plant response rating, Radish, Wild ([14]; 250 g ai/ha): 100
